Measurements taken from patent US6972287B1, “Method of inhibiting amyloid protein aggregation and imaging amyloid deposits” (Pfizer Inc., priority 1999, dated 2005).
Where “and” joins values, the source holds several entries; their conditions need not be identical. Identical values can stand only once.

Assays:
Aβ(1-40) [1] = target: T1, Aβ(1-40) (Homo sapiens, UniProt P05067); test: BASSR (Beta-Amyloid Self-Seeding Radioassay), inhibitors of self-seeded amyloid fibril growth; assay type: biochemical; details: 30 μM soluble Aβ(1-40) + 125I-labeled Aβ(1-40), 37° C., 3 to 5 hours; replicate values; letter = synthetic lot; ppt = precipitate; V-shaped = inhibition followed by precipitation
T1 construct: […]; purchased Bachem, Torrance, Calif
In short: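 Self-seeded growth of ^125I-labeled Aβ(1-40) fibrils in 50 mM sodium phosphate pH 7.5, 100 mM NaCl, 0.02% NaN3, 1 M urea; compound (3-fold dilutions from 100 μM final) preincubated 10 min on ice, then 3–5 h at 37° C. Fibrils collected by vacuum filtration on 0.2 μm filters and counted for radioactivity.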

Aβ(1-40) [2] = target: T1, Aβ(1-40); test: BASST (Beta-Amyloid Self-Seeding, Thioflavin T), inhibitors of self-seeded amyloid fibril growth; assay type: biochemical; details: 30 μM soluble Aβ(1-40), 37° C., 3 to 5 hours, thioflavin T fluorescence; replicate values; letter = synthetic lot; read-out: BASST (IC50 = μM)
In short: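 Self-seeded Aβ(1-40) fibril growth was run in 50 mM sodium phosphate pH 7.5, 100 mM NaCl, 0.02% NaN3, 1 M urea. Compounds were tested in 3-fold serial dilutions (top 100 μM final): 10 min on ice, then 3–5 h at 37 °C. Fibrils were read by 5 μM thioflavin T fluorescence (ex 440/em 485 nm).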

Aβ (1-42) = target: T2, Aβ (1-42) (Homo sapiens, UniProt P05067); test: BATYM assay (Aβ (1-42) aggregation, Thioflavin T fluorescence); assay type: biochemical; details: Aβ 1-42 final concentration 100 μM, 37° C., 1 day, letter = synthetic lot
T2 construct: Required Aβ (1-42) (California Peptide) was dried from its hexafluoroisopropanol (HFIP) stock solution; purchased California Peptide
In short: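 Aβ (1-42) (100 μM final, PBS pH 7.4 from DMSO) incubated with compound at 37° C. for 1 day. Aggregation read by ThT (30 μM, glycine-NaOH pH 8.5) fluorescence, ex 440/em 485 nm; inhibition as fluorescence reduction corrected for compound-alone signal, IC50 by curve fitting from two experiments in triplicate.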

Aβ (1-40) peptide = target: T3, Aβ (1-40) peptide (Homo sapiens, UniProt P05067); test: BAPA (Beta-Amyloid Peptide Aggregation, pH 6.0, filtration); assay type: biochemical; details: Aβ (1-40) 33 μM, pH 6.0, 2 to 4 hours at room temperature; replicate values; letter = synthetic lot
T3 construct: 10 μL 0.5 mg/mL Aβ (1-40) peptide in 20% HFIP
In short: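 Aggregation of human Aβ (1-40) peptide was measured in an endpoint filtration assay. The peptide was first reduced to monomer with hexafluoroisopropanol (HFIP), then used at 33 μM so it would aggregate at pH 6.0, and incubated for 2 to 4 hours at room temperature. Filter plates were washed with 100 μL phosphate buffer, impregnated with Meltilex, and counted on a Microbeta counter with background correction.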

T3 sequence (P05067 672-711 limits assumed): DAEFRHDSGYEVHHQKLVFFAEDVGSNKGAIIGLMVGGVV
T1 sequence (P05067 672-711 limits assumed): as above
T2 sequence (P05067 672-713 limits assumed): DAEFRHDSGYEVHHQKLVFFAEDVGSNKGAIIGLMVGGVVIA

Row | Structure (SMILES) | IC50 (Aβ(1-40) [1]) | IC50 (Aβ(1-40) [2]) | IC50 (Aβ (1-42)) [µM] | IC50 (Aβ (1-40) peptide) [µM] | melting point [°C]
1 | COc1cc(Nc2ccc(CCc3ccc(Cl)c(Cl)c3)cc2)c(C(=O)O)cc1[N+](=O)[O-] [Example 3, 2-{4-[4-(3,4-Dichloro-phenyl)-ethyl]phenylamino}-4-methoxy-5-nitrobenzoic acid] | 4.5 µM and 5 µM (3×) and 15 µM | 2 µM and 3 µM | 11.7 | > 60 | 208 to 209
2 | O=C(O)c1cc([N+](=O)[O-])ccc1Nc1ccc(CCc2ccccc2Cl)cc1 [Example 76, 2-{4-[2-(2-Chloro-phenyl)-ethyl]-phenylamino}-5-nitrobenzoic acid] | 3 µM | 0.5 µM | 8.59 | > 60 | 236 to 238
3 | O=C(O)c1ccccc1Nc1ccc(CCc2ccc(Oc3ccccc3)cc2)cc1 [Example 134, 2-{4-[2-(4-Phenoxy-phenyl)-ethyl]-phenylamino}-benzoic acid] | > 100 µM | 2 µM | 36.5 | > 60 | 153 to 154
4 | O=C(O)c1cc([N+](=O)[O-])ccc1Nc1ccc(CCCCCc2ccc(Cl)c(Cl)c2)cc1 [Example 13, 2-{4-[5-(3,4-Dichlorophenyl)pentyl]phenylamino}-5-nitrobenzoic acid] | 21 µM and > 100 µM (2×) and 20 µM and 15 µM | 0.9 µM | 6.41 | 6 | 147 to 148
5 | CN(C)c1ccc(N(C)c2ccc(CCc3ccc(Cl)c(Cl)c3)cc2)c(C(=O)O)c1 [Example 147, 2-({4-[2-(3,4-Dichloro-phenyl)-ethyl]-phenyl}-methyl-amino)-5-dimethylamino-benzoic acid] | > 100 µM | 10 µM | 93.4 | > 60 | 128 to 131
6 | CCCCN(CCCC)c1ccc(CCc2ccc(Nc3ccccc3C(=O)O)cc2)cc1 [Example 5, 2-{4-[2-(4-Dibutylamino-phenyl)-ethyl]phenylamino}benzoic acid] | 70 µM and > 100 µM | 4.5 µM | 10 | 74 | 115 to 117
7 | O=C(O)c1c(Nc2ccc(CCc3ccc(Cl)c(Cl)c3)cc2)cccc1C(F)(F)F [Example 78, 2-{4-[2-(3,4-Dichloro-phenyl)-ethyl]-phenylamino}-6-trifluoromethyl-benzoic acid] | 70 µM | 0.1 µM | > 100 | 8 | 130 to 132
8 | CCNc1ccc(CCCc2ccc(Nc3ccccc3C(=O)O)cc2)cc1 [Example 29, 2-{4-[3-(4-Ethylaminophenyl)propyl]phenylamino}benzoic acid] | > 100 µM | 4 µM | 38.1 | 30 | 133
9 | CC(=O)Nc1cccc(CCCc2ccc(Nc3ccccc3C(=O)O)cc2)c1 [Example 40, 2-{4-[3-(3-Acetylaminophenyl)propyl]phenylamino}benzoic acid] | > 100 µM | 3 µM | > 100 | 53 | 140 to 145
10 | O=C(O)c1cc([N+](=O)[O-])ccc1Nc1ccc(CCc2ccc(Cl)cc2)cc1 [Example 74, 2-{4-[2-(4-Chloro-phenyl)-ethyl]-phenylamino}-5-nitro-benzoic acid] | 6 µM and 18 µM (2×) and 19 µM | 0.3 µM and 0.5 µM | 8.36 | > 60 | 210 to 212
